Where a name gives a salt, the structure may show the parent alone.
Assays:
[1] = tested on: uterine muscles isolated from pregnant rabbits; test: Spontaneous contractions of isolated uterine muscles of pregnant rabbits (organ bath); type: cell-based, rabbit; details: spontaneous contractions, pregnant rabbit uterine muscles; for EC50: Oryctolagus cuniculus, read-out: pD2 values (converted)
Description: (§1) Uterine muscles of pregnant rabbits were isolated, and experiments were conducted based on organ-bath method. After specimens of uterine muscles were suspended and spontaneous contractions was stabilized, the test substance, control substance or positive control substance was administered every 10 min, while doses were increased gradually. Efficacy of drugs was evaluated by comparing the sum of uterine contraction for 10 min before and after administration of drugs, defining the former as 100%.

[2] = tested on: uterine muscle isolated from pregnant rats; test: Spontaneous contractions of uterine muscle isolated from pregnant rats (organ bath); type: cell-based; details: pregnant rat uterine muscle, mean ± standard error, 10 samples
Description: The experimental operation of this study was as reported by T. Kawarabayashi et al.^1 After each SD-strain rat on Day 21 of pregnancy were exsanguinated to death, the uterus was isolated to prepare up to 8 myometrial strips (about 4 mm×10 mm) in the direction of the longitudinal muscle, with the adhesion to the placenta being avoided.
Each myometrial strip was suspended in an organ bath containing 10 mL of a Locke-Ringer solution at 37° C. (aerated with 95% O2+5% CO2 gas) with a load of about 1.0 g. After the amplitude and frequency of the muscular spontaneous contractions became stable, distilled water was added. Five minutes later, the test, control, or positive control substance was added cumulatively with intervals of 5 minutes. The myometrial contractile force was delivered to a strain pressure amplifier through a force displacement transducer and recorded on a Rectigraph.
Considering the sum of the uterine contraction during 5 minutes after the addition of distilled water as 100%, the response rate to each concentration of the test, control, or positive control substance was calculated from the sum of the uterine contraction after each was added. Variable points (peaks) with amplitude (tension) of 0.2 g or lower were excluded from analysis. Samples showing any of the following events were not used for the study or excluded from analysis.
Microsoft® Excel 2000 (Microsoft Corp.) was used to sum up and analyze data and prepare tables and figures. Using a concentration-response curve obtained for each sample (X axis: log value of the concentration of the drug added, Y axis: response rate), a negative log value (pD2) of the concentration that inhibited the uterine contraction by 50% (EC50) was calculated from a straight line that connects the 2 concentrations above and below 50%, and converted to EC50.

[3] = tested on: uterine muscle isolated from pregnant rats; test: Oxytocin-induced contraction of uterine muscle isolated from pregnant rats; type: cell-based, rat; details: contraction induced with 1 mU/mL of oxytocin, mean ± standard error of 10 samples
Description: (§2) After SD-strain rats on Day 17 of pregnancy were exsanguinated to death, the uterus was isolated to prepare up to 8 myometrial strips (about 4 mm×10 mm) per animal in the direction of the longitudinal muscle while avoiding the adhesion to the placenta. Each strip was suspended in an organ bath containing 10 mL of a modified Locke-Ringer solution at […] (aerated with 95% O2+5% CO2 gas) with a load of about 1.0 g. After the suspended sample became stable for static tension, 5 μg/mL of PG F2α or 1 mU/mL of oxytocin was added to induce contraction. After the sample was allowed to stand for at least 30 minutes to confirm stable rhythmic contraction for frequency and amplitude, the test, control, or positive control substance solution was added cumulatively at intervals of 5 minutes. After the treatment was completed, 1×10^−5 mol/L of forskolin was added to obtain maximal relaxation. The contractile force of the uterine sample was delivered via a force displacement transducer to a strain pressure amplifier and recorded on a Rectigraph.
(§3) Considering the sum of the uterine contraction for 5 minutes before treatment as 100%, the response rate to each concentration of the test, control, or positive control substance solution was calculated from the sum of uterine contraction after treatment for both PG F2α and oxytocin induced contraction. Then, the response rates obtained were used to prepare a concentration-response curve for each sample. The maximum relaxation obtained by adding forskolin was considered as a baseline. Variable points (peaks) with amplitude (tension) of […] or lower were excluded from analysis. Samples showing any of the following events were not used for the study or excluded from analysis.
(§4) Microsoft® Excel 2000 (Microsoft Corp.) was used to sum up and calculate data and prepare tables and figures. Using a concentration-response curve prepared for each sample (X axis: log value of the concentration of the substance added, Y axis: response rate), a negative log value (pEC50) of the concentration that inhibited the uterine contraction by 50% (EC50) was calculated from a straight line connecting the 2 concentrations just above and below 50%, and then converted to EC50 (unit: mol/L).

[4] = tested on: uterine muscle isolated from pregnant rats; test: PG F2α-induced contraction of uterine muscle isolated from pregnant rats; type: cell-based, rat; details: contraction induced with 5 μg/mL of PG F2α, mean ± standard error of 10 samples
Description: as §2, §3, §4

[5] = tested on: uterine muscles isolated from pregnant rabbits; test: Oxytocin-induced contractions of isolated uterine muscles of pregnant rabbits (organ bath); type: cell-based, rabbit; details: oxytocin (1 mU/mL)-induced contractions, pregnant rabbit uterine muscles; for EC50: Oryctolagus cuniculus, read-out: pD2 values (converted)
Description: as §1, with “oxytocin (1 mU/mL)-induced” for “spontaneous”

[6] = tested on: uterine activity of anesthetized pregnant rats; test: Uterine motility of anesthetized pregnant rats (balloon method); type: in vivo, rat; details: uterine motility, intravenous cumulative dosing every 15 minutes, urethane-anesthetized pregnant rats
Description: Rats were anesthetized with urethane, and experiments were conducted based on balloon method. Uterine activity and mean blood pressure of dam were led to a pressure amplifier via a pressure transducer. As for heart rate, pulse waves were led to tachometer. Recti-graphs were used for recording. The test substance, control substance, or positive control substance was administered intravenously and cumulatively every 15 minutes, while doses were increased gradually.

[7] = tested on: uterine muscle isolated from pregnant rats; test: Interaction of MN-221 and β-adrenoceptor antagonists on spontaneous contraction of uterine muscle isolated from pregnant rats (Schild regression); type: cell-based, rat
Description: The experimental operation of this study was as reported by T. Kawarabayashi et al.^4. After each SD-strain rat on Day 21 of pregnancy was exsanguinated to death, the uterus was isolated to prepare 8 myometrial samples (about 4 mm×10 mm) in the direction of the longitudinal muscle, with the adhesion to the placenta being avoided. Each myometrial sample was suspended with a load of about 1.0 g in an organ bath containing 10 mL of the Locke-Ringer solution at 37° C. […] After the suspended samples became stable for the amplitude and frequency of spontaneous contraction, each antagonist or distilled water was added to the bath to pretreat them for about 15 minutes. […] The contractile force of each sample was outputted through a force displacement transducer to a strain pressure amplifier and recorded with a rectigraph.
Any variable point (peak) with amplitude (tension) of 0.2 g or lower was excluded from analysis. Samples meeting any of the following criteria were rejected or removed from analysis.
Microsoft® Excel 2000 (Microsoft Corp.) was used for summing up or calculating data and preparing figures and tables. […] This EC50 value was used to calculate the concentration ratio (CR) of EC50 when an antagonist was added (for each sample) to that when no antagonist was added (mean value of the whole control group) and the logarithmic value of CR-1 (log [CR-1]).
Then, the added concentration of the antagonist was plotted on the X axis (logarithmic value) and log(CR-1) on the Y axis (Schild plot) to calculate the value of the X-axis intercept (pA2) and slope of the line using linear approximation (Schild regression^5). The slope was statistically compared with a slope of 1 (paired t-test; a probability level of less than 5% was considered significant). […] The mean and standard error were calculated for each data point obtained and indicated to two decimal places (or in 3 significant digit).

[8] = Rattus norvegicus, read-out: EC50
[9] = Rattus norvegicus, read-out: pEC50 (converted)

Row | EC50 ([2]; read-out: EC50) [nM] | EC50 [1] [nM] | EC50 [5] [nM] | Compound | pD2 values [1] | pD2 values [5] | ED30 values [6] [µg/kg/min] | also measured
1 | 0.42 ± 0.1 | – | – | isoproterenol bitartrate | 8.69 ± 0.17 | 8.53 ± 0.21 | – | pD2 [2]: 9.52±0.13; pEC50 [3]: 9.27±0.03; EC50 ([3]; read-out: EC50): 0.556 ± 0.0412 nM; pEC50 [4]: 8.32±0.05; EC50 ([4]; read-out: EC50): 5.1 ± 0.633 nM
2 | – | 89.1 | 40.7 | CC(C)(C)NCC(O)c1cc(O)cc(O)c1 (stereo not shown) [Terbutaline sulfate, terbutaline sulfate] | – | – | 0.72 | –

The remaining lines, values behind:

Row | Compound | EC50 ([2]; read-out: EC50) [nM] | EC50 [1] [nM] | EC50 [5] [nM] | pD2 values [1] | pD2 values [5] | ED30 values [6] [µg/kg/min] | also measured
3 | CC(NCCc1ccc(O)cc1)C(O)c1ccc(O)cc1 (racemic) [Ritodrine hydrochloride, (±)-erythro-1-(p-hydroxyphenyl)-2-[2-(p-hydroxyphenyl)ethylamino]-1-propanol hydrochloride] | 39.8 ± 13.3 | 135 | 77.6 | – | – | 51.45 | EC50 ([2]; read-out: pD2 (converted)): 25.7 nM; EC50 [3, 8]: 133 ± 16.8 nM; EC50 [3, 9]: 120 nM; EC50 [4, 8]: 3430 ± 720 nM; EC50 [4, 9]: 2630 nM
4 | CC(C)(C)NC[C@H](O)c1ccc(O)cc1Cl.O=C(O)C(O)C(O)C(=O)O [HSR-81, meluadrine tartrate] | – | – | – | 8.21 ± 0.26 | 8.12 ± 0.21 | 0.56 | –
5 | CCc1ccccc1OC[C@@H](O)CN[C@H]1CCCc2ccccc21 [SR 59230A, reference compound] | – | – | – | – | – | – | antagonistic effect on the effect of MN-221 ([7]; at a concentration of up to 3×10^−8 mol/L): no evident antagonistic effect
6 | Cn1cc(C(F)(F)F)nc1-c1ccc(OCC(O)CNCCOc2ccc(O)c(C(N)=O)c2)cc1 (stereo not shown) [CGP 20712A, reference compound] | – | – | – | – | – | – | antagonistic effect on the effect of MN-221 ([7]; at a concentration of up to 1×10^−8 mol/L): no evident antagonistic effect

— patent US20120035265A1, “COMPOSITIONS, METHODS, AND DEVICES FOR THE TREATMENT OF DYSMENORRHEA” (MediciNova, Inc., priority 2010, published 2012)
